Experiments:
green foxtail [1] = assay: Test Example 4: herbicidal effect by soil treatment (Table 19, symbol G); format: in vivo, green foxtail (Setaria viridis)
How it was run: (§1)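 Soil-surface application: an emulsion agent diluted with water to the predetermined dose is sprayed uniformly over seeds lying under roughly 1.5 cm of sterilized diluvial soil. Boxes stay in a greenhouse at 25° C. to 30° C. Three weeks later, each species is graded on previously defined criteria.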

persian speedwell [2] = assay: Test Example 5: herbicidal effect by foliage application, plastic box (Table 20, symbol R); format: in vivo, Persian speedwell (Veronica persica); conditions: foliage application, three weeks after application
How it was run: (§2)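 Sow seeds spot-wise in sterilized diluvial soil; cover with ~1.5 cm soil. Grow 14 days in greenhouse, 25° C. to 30° C. Spray foliage with emulsion diluted to predetermined amount. Rate effect after 3 weeks.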

windgrass [3] = assay: Test Example 5: herbicidal effect by foliage application, plastic box (Table 20, symbol L); format: in vivo, windgrass (Apera spica-venti); conditions: foliage application, three weeks after application
How it was run: as §2

windgrass [4] = assay: Test Example 4: herbicidal effect by soil treatment (Table 19, symbol L); format: in vivo, windgrass (Apera spica-venti)
How it was run: as §1

green foxtail [5] = assay: Test Example 5: herbicidal effect by foliage application, plastic box (Table 20, symbol G); format: in vivo, green foxtail (Setaria viridis); conditions: foliage application, three weeks after application
How it was run: as §2

southern crabgrass [6] = assay: Test Example 5: herbicidal effect by foliage application, plastic box (Table 20, symbol F); format: in vivo, southern crabgrass (Digitaria ciliaris); conditions: foliage application, three weeks after application
How it was run: as §2

southern crabgrass [7] = assay: Test Example 4: herbicidal effect by soil treatment (Table 19, symbol F); format: in vivo, southern crabgrass (Digitaria ciliaris)
How it was run: as §1

Chinese sprangletop = assay: Test Example 3: herbicidal effect by foliage application, Wagner pot (Table 18, symbol D); format: in vivo, chinese sprangletop (Leptochloa chinensis)
How it was run: (§3)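 Plants were sown in alluvial soil held under 0.1–0.5 cm standing water and grown 14 days in a greenhouse at 25–30 °C. An emulsifiable formulation, water-diluted to the set dose, was then sprayed onto the foliage, and effects were scored three weeks later using previously defined criteria.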

rice flat sedge = assay: Test Example 3: herbicidal effect by foliage application, Wagner pot (Table 18, symbol E); format: in vivo, rice flat sedge (Cyperus iria)
How it was run: as §3

lambsquarters [8] = assay: Test Example 4: herbicidal effect by soil treatment (Table 19, symbol O); format: in vivo, lambsquarters (Chenopodium album)
How it was run: as §1

velvetleaf [9] = assay: Test Example 5: herbicidal effect by foliage application, plastic box (Table 20, symbol M); format: in vivo, velvetleaf (Abutilon theophrasti); conditions: foliage application, three weeks after application
How it was run: as §2

chickweed = assay: Test Example 4: herbicidal effect by soil treatment (Table 19, symbol P); format: in vivo, common chickweed (Stellaria media)
How it was run: as §1

blackgrass [10] = assay: Test Example 4: herbicidal effect by soil treatment (Table 19, symbol J); format: in vivo, blackgrass (Alopecurus myosuroides)
How it was run: as §1

barnyard grass [11] = assay: Test Example 4: herbicidal effect by soil treatment (Table 19, symbol H); format: in vivo, barnyard grass (Echinochloa crus-galli)
How it was run: as §1

redroot pigweed = assay: Test Example 4: herbicidal effect by soil treatment (Table 19, symbol N); format: in vivo, redroot pigweed (Amaranthus retroflexus)
How it was run: as §1

barnyard grass [12] = assay: Test Example 3: herbicidal effect by foliage application, Wagner pot (Table 18, symbol H); format: in vivo, barnyard grass (Echinochloa crus-galli)
How it was run: as §3

blackgrass [13] = assay: Test Example 5: herbicidal effect by foliage application, plastic box (Table 20, symbol J); format: in vivo, blackgrass (Alopecurus myosuroides); conditions: foliage application, three weeks after application
How it was run: as §2

Italian ryegrass [14] = assay: Test Example 5: herbicidal effect by foliage application, plastic box (Table 20, symbol K); format: in vivo, Italian ryegrass (Lolium multiflorum); conditions: foliage application, three weeks after application
How it was run: as §2

persian speedwell [15] = assay: Test Example 4: herbicidal effect by soil treatment (Table 19, symbol R); format: in vivo, Persian speedwell (Veronica persica)
How it was run: as §1

barnyard grass [16] = assay: Test Example 5: herbicidal effect by foliage application, plastic box (Table 20, symbol H); format: in vivo, barnyard grass (Echinochloa crus-galli); conditions: foliage application, three weeks after application
How it was run: as §2

wild oat [17] = assay: Test Example 5: herbicidal effect by foliage application, plastic box (Table 20, symbol I); format: in vivo, wild oat (Avena fatua); conditions: foliage application, three weeks after application
How it was run: as §2

lambsquarters [18] = assay: Test Example 5: herbicidal effect by foliage application, plastic box (Table 20, symbol O); format: in vivo, lambsquarters (Chenopodium album); conditions: foliage application, three weeks after application
How it was run: as §2

velvetleaf [19] = assay: Test Example 4: herbicidal effect by soil treatment (Table 19, symbol M); format: in vivo, velvetleaf (Abutilon theophrasti)
How it was run: as §1

Italian ryegrass [20] = assay: Test Example 4: herbicidal effect by soil treatment (Table 19, symbol K); format: in vivo, Italian ryegrass (Lolium multiflorum)
How it was run: as §1

wild oat [21] = assay: Test Example 4: herbicidal effect by soil treatment (Table 19, symbol I); format: in vivo, wild oat (Avena fatua)
How it was run: as §1

false cleavers = assay: Test Example 5: herbicidal effect by foliage application, plastic box (Table 20, symbol Q); format: in vivo, false cleavers (Galium spurium); conditions: foliage application, three weeks after application
How it was run: as §2

[22] = amount of applied herbicide 147 g/ha
[23] = amount of applied herbicide 320 g/ha

SMILES: COc1ccccc1-c1oc2ccc(C)cc2c1-c1c(O)c(C)nn(C)c1=O [9-006]
- G: green foxtail, herbicidal effect grade (green foxtail [1]; [22]): 0 (Herbicidal rate of 5% or less (almost no effect))
- herbicidal effect on persian speedwell (R) (persian speedwell [2]; 147 g/ha): 0 (Herbicidal rate of 5% or less (almost no effect))
- herbicidal effect on windgrass (L) (windgrass [3]; 147 g/ha): 0 (Herbicidal rate of 5% or less (almost no effect))
- L: windgrass, herbicidal effect grade (windgrass [4]; [22]): 0 (Herbicidal rate of 5% or less (almost no effect))
- herbicidal effect on green foxtail (G) (green foxtail [5]; 147 g/ha): 0 (Herbicidal rate of 5% or less (almost no effect))
- herbicidal effect on southern crabgrass (F) (southern crabgrass [6]; 147 g/ha): 0 (Herbicidal rate of 5% or less (almost no effect))
- F: southern crabgrass, herbicidal effect grade (southern crabgrass [7]; [22]): 0 (Herbicidal rate of 5% or less (almost no effect))
- Herbicidal effect on D (Chinese sprangletop), foliage application (Chinese sprangletop; [22]): 0 (Herbicidal rate of 5% or less (almost no effect))
- Herbicidal effect on E (rice flat sedge), foliage application (rice flat sedge; [22]): 2 (Herbicidal rate of 20% or more and less than 40%)
- O: lambsquarters, herbicidal effect grade (lambsquarters [8]; [22]): 0 (Herbicidal rate of 5% or less (almost no effect))
- herbicidal effect on velvetleaf (M) (velvetleaf [9]; 147 g/ha): 2 (Herbicidal rate of 20% or more and less than 40%)
- P: chickweed, herbicidal effect grade (chickweed; [22]): 0 (Herbicidal rate of 5% or less (almost no effect))
- J: blackgrass, herbicidal effect grade (blackgrass [10]; [22]): 0 (Herbicidal rate of 5% or less (almost no effect))
- H: barnyard grass, herbicidal effect grade (barnyard grass [11]; [22]): 0 (Herbicidal rate of 5% or less (almost no effect))
- N: redroot pigweed, herbicidal effect grade (redroot pigweed; [22]): 3 (Herbicidal rate of 40% or more and less than 70%)
- Herbicidal effect on H (barnyard grass), foliage application (barnyard grass [12]; [22]): 1 (Herbicidal rate of 5% or more and less than 20%)
- herbicidal effect on blackgrass (J) (blackgrass [13]; 147 g/ha): 0 (Herbicidal rate of 5% or less (almost no effect))
- herbicidal effect on Italian ryegrass (K) (Italian ryegrass [14]; 147 g/ha): 0 (Herbicidal rate of 5% or less (almost no effect))
- R: persian speedwell, herbicidal effect grade (persian speedwell [15]; [22]): 0 (Herbicidal rate of 5% or less (almost no effect))
- herbicidal effect on barnyard grass (H) (barnyard grass [16]; 147 g/ha): 0 (Herbicidal rate of 5% or less (almost no effect))
- herbicidal effect on wild oat (I) (wild oat [17]; 147 g/ha): 0 (Herbicidal rate of 5% or less (almost no effect))
- herbicidal effect on lambsquarters (O) (lambsquarters [18]; 147 g/ha): 0 (Herbicidal rate of 5% or less (almost no effect))
- M: velvetleaf, herbicidal effect grade (velvetleaf [19]; [22]): 0 (Herbicidal rate of 5% or less (almost no effect))
- K: Italian ryegrass, herbicidal effect grade (Italian ryegrass [20]; [22]): 0 (Herbicidal rate of 5% or less (almost no effect))
- I: wild oat, herbicidal effect grade (wild oat [21]; [22]): 0 (Herbicidal rate of 5% or less (almost no effect))
- herbicidal effect on false cleavers (Q) (false cleavers; 147 g/ha): 3 (Herbicidal rate of 40% or more and less than 70%)

SMILES: COc1cc(F)ccc1-c1oc2ccc(C)cc2c1-c1c(O)c(C)nn(C)c1=O [9-009]
- G: green foxtail, herbicidal effect grade (green foxtail [1]; [23]): 3 (Herbicidal rate of 40% or more and less than 70%)
- herbicidal effect on persian speedwell (R) (persian speedwell [2]; 320 g/ha): 3 (Herbicidal rate of 40% or more and less than 70%)
- herbicidal effect on windgrass (L) (windgrass [3]; 320 g/ha): 0 (Herbicidal rate of 5% or less (almost no effect))
- L: windgrass, herbicidal effect grade (windgrass [4]; [23]): 0 (Herbicidal rate of 5% or less (almost no effect))
- herbicidal effect on green foxtail (G) (green foxtail [5]; 320 g/ha): 2 (Herbicidal rate of 20% or more and less than 40%)
- herbicidal effect on southern crabgrass (F) (southern crabgrass [6]; 320 g/ha): 2 (Herbicidal rate of 20% or more and less than 40%)
- F: southern crabgrass, herbicidal effect grade (southern crabgrass [7]; [23]): 2 (Herbicidal rate of 20% or more and less than 40%)
- Herbicidal effect on D (Chinese sprangletop), foliage application (Chinese sprangletop; [23]): 0 (Herbicidal rate of 5% or less (almost no effect))
- Herbicidal effect on E (rice flat sedge), foliage application (rice flat sedge; [23]): 1 (Herbicidal rate of 5% or more and less than 20%)
- O: lambsquarters, herbicidal effect grade (lambsquarters [8]; [23]): 3 (Herbicidal rate of 40% or more and less than 70%)
- herbicidal effect on velvetleaf (M) (velvetleaf [9]; 320 g/ha): 2 (Herbicidal rate of 20% or more and less than 40%)
- P: chickweed, herbicidal effect grade (chickweed; [23]): 0 (Herbicidal rate of 5% or less (almost no effect))
- J: blackgrass, herbicidal effect grade (blackgrass [10]; [23]): 0 (Herbicidal rate of 5% or less (almost no effect))
- H: barnyard grass, herbicidal effect grade (barnyard grass [11]; [23]): 3 (Herbicidal rate of 40% or more and less than 70%)
- N: redroot pigweed, herbicidal effect grade (redroot pigweed; [23]): 0 (Herbicidal rate of 5% or less (almost no effect))
- Herbicidal effect on H (barnyard grass), foliage application (barnyard grass [12]; [23]): 3 (Herbicidal rate of 40% or more and less than 70%)
- herbicidal effect on blackgrass (J) (blackgrass [13]; 320 g/ha): 0 (Herbicidal rate of 5% or less (almost no effect))
- herbicidal effect on Italian ryegrass (K) (Italian ryegrass [14]; 320 g/ha): 1 (Herbicidal rate of 5% or more and less than 20%)
- R: persian speedwell, herbicidal effect grade (persian speedwell [15]; [23]): 0 (Herbicidal rate of 5% or less (almost no effect))
- herbicidal effect on barnyard grass (H) (barnyard grass [16]; 320 g/ha): 3 (Herbicidal rate of 40% or more and less than 70%)
- herbicidal effect on wild oat (I) (wild oat [17]; 320 g/ha): 2 (Herbicidal rate of 20% or more and less than 40%)
- herbicidal effect on lambsquarters (O) (lambsquarters [18]; 320 g/ha): 3 (Herbicidal rate of 40% or more and less than 70%)
- M: velvetleaf, herbicidal effect grade (velvetleaf [19]; [23]): 0 (Herbicidal rate of 5% or less (almost no effect))
- K: Italian ryegrass, herbicidal effect grade (Italian ryegrass [20]; [23]): 0 (Herbicidal rate of 5% or less (almost no effect))
- I: wild oat, herbicidal effect grade (wild oat [21]; [23]): 0 (Herbicidal rate of 5% or less (almost no effect))
- herbicidal effect on false cleavers (Q) (false cleavers; 320 g/ha): 4 (Herbicidal rate of 70% or more and less than 90%)

From US20230085307A1, “PYRIDAZINONE COMPOUND AND HERBICIDE” (NISSAN CHEMICAL CORPORATION, priority 2019, published 2023)
